Common to all, as to assay type: functional
For assay [1], the system named is HEp-2. The assay is described as follows: Cytotoxicity against human Hep2 cells by MTT assay. To be noted: read-out: ED50 (the source's name). In general terms: Formazan colour is commonly taken as a measure of viable cells.
Assay [2] deals with MCF7. The experiment in a line: Cytotoxicity against human MCF7 cells by MTT assay. The note with it: read-out: ED50 (the source's name).
Assay [3] deals with WiDr. The assay is described as follows: Cytotoxicity against human WiDr cells by MTT assay. The note with it: read-out: ED50 (the source's name).
Assay [4] concerns Daoy. The assay is described as follows: Cytotoxicity against human DaOY cells by MTT assay. To be noted: read-out: ED50 (the source's name).
In assay [5] the test system is RAW264.7. The experiment in a line: Antiinflammatory activity in mouse RAW264.7 cells assessed as inhibition of LPS-stimulated iNOS protein expression by measuring iNOS protein level at 10 uM by Western blot relative to untreated control. (In general: Immunoblotting shows a protein as a band on a membrane.)
The test system of assay [6] is RAW264.7. The experiment in a line: Antiinflammatory activity in mouse RAW264.7 cells assessed as inhibition of LPS-stimulated COX2 protein expression by measuring COX2 protein level at 10 uM by Western blot relative to untreated control. More on the design: scale not given: the % may be the effect or the level left.

In brackets after ≈: the same amount, converted by molar mass.

Take `C=C1CC/C=C(\C)C[C@@H]2OC(=O)C(=C)[C@H]2C[C@H](O)[C@@]2(C)CC[C@@H]1O2` [SARCOCRASSOCOLIDE D]: the EC50 in assay [1] was 4 µg/mL (≈ 12 µM); in assay [2] it was 4.1 µg/mL (≈ 12.3 µM); in assay [3], 1.8 µg/mL (≈ 5.41 µM); in assay [4] it was 5.4 µg/mL (≈ 16.2 µM). Further, the “iNOS protein level relative to control” value in assay [5] worked out at 7%.
Regarding `C=C1C(=O)O[C@@H]2[C@@H]1C[C@H](O)[C@@]1(C)CC[C@@H](O1)C(=C)CC/C=C(\C)[C@@H]2OC(C)=O` [SARCOCRASSOCOLIDE A], the EC50 in assay [1] was determined as 6.2 µg/mL (≈ 15.9 µM); in assay [2] it was 4.2 µg/mL (≈ 10.8 µM); in assay [3], 4.2 µg/mL (≈ 10.8 µM); in assay [4], 8.8 µg/mL (≈ 22.5 µM). Besides, the “iNOS protein level relative to control” value in assay [5] came out at 13.7%.
For the compound `C=C1C(=O)O[C@H]2[C@H]1C[C@@H]1O[C@@]1(C)CC/C=C(\C)CC/C=C(\C)[C@@H]2OC(C)=O`, the “iNOS protein level relative to control” value in assay [5] amounted to 6.2%.
Consider `C=C1CC/C=C(\C)[C@H](OC(C)=O)[C@@H]2OC(=O)C(=C)[C@H]2C[C@H](O)[C@@]2(C)CC[C@@H]1O2` [SARCOCRASSOCOLIDE B], for which the EC50 in assay [1] came out at 4.5 µg/mL (≈ 11.5 µM); in assay [2] it was 3.2 µg/mL (≈ 8.2 µM); in assay [3] it was 3.2 µg/mL (≈ 8.2 µM); in assay [4] it was 5.6 µg/mL (≈ 14.3 µM). Also, in assay [5], the “iNOS protein level relative to control” value is reported as 13.3%.
On to `C=C1C(=O)O[C@@H]2C/C(C)=C/CC/C(C)=C/CC[C@]3(C)O[C@H]3C[C@@H]12` [SARCOCRASSOLIDE], for which the Activity in assay [6] is reported as 3.9%. Further, the “iNOS protein level relative to control” value in assay [5] is recorded as 1.1%.
As to `CO[C@@]12[C@H](COC(N)=O)C3=C(C(=O)C(C)=C(N)C3=O)N1C[C@@H]1N[C@@H]12` [MITOMYCIN], the EC50 in assay [1] was found to be 0.07 µg/mL (≈ 0.209 µM); in assay [2] it was 0.14 µg/mL (≈ 0.419 µM); in assay [3], 0.15 µg/mL (≈ 0.449 µM); in assay [4], 0.14 µg/mL (≈ 0.419 µM).
As to `C=C1C(=O)O[C@H]2C/C(C)=C/CCC(=C)[C@H]3CC[C@@](C)(O3)[C@@H](O)C[C@H]12` [SARCOCRASSOCOLIDE C], the EC50 stood at 2.6 µg/mL (≈ 7.82 µM) in assay [1], 2 µg/mL (≈ 6.02 µM) in assay [2], 1.2 µg/mL (≈ 3.61 µM) in assay [3] and 3.2 µg/mL (≈ 9.63 µM) in assay [4]. Moreover, in assay [5], the “iNOS protein level relative to control” value worked out at 4.6%.
